Measurements published in patent publication US7183394B1, “Helical nucleopeptides” (priority 2000, dated 2007).

Experiments:
Type in all cases: binding
d(A3AGGAGA3) [1] = assay: Thermal UV denaturation (Tm), antiparallel target d(A3AGGAGA3); details: antiparallel N/3′; 5 μM each in TE buffer pH 7, incubated overnight at 4° C.
Method: (§1) The N-caps investigated consisted of a series of arenyl and aliphatic carboxylic acids. […] Thermal UV denaturation (Tm) data for the equilibria between N-cap-CTCCT and d(A3GAGGAA3) (SEQ. ID NO.: 5) (N/5′ or parallel orientation) and N-cap-CTCCT and d(A3AGGAGA3) (SEQ. ID NO.: 4) (N/3′ or antiparallel orientation) are collected in Table 2. Thermal UV denaturation curves were obtained with sample solutions made by combining the N-capped (αPNA and ssDNA components (5 μM each) in TE buffer (10 mM Tris-HCl, 1 mM EDTA, pH 7). These solutions were then incubated overnight at 4° C.

d(A3GAGGAA3) = assay: Thermal UV denaturation (Tm), parallel target d(A3GAGGAA3); details: for Tm (cooling) / Tm (heating): parallel N/5′, 5 μM each in TE buffer pH 7, incubated overnight at 4° C.
Method: as §1

d(TA3G5A3T) = assay: Thermal denaturation (Tm) of complex with d(TA3G5A3T); details: for Tm (cooling) / Tm (heating): Table 3, N-4-(cyclohexyl)butyryl cap
Method: The α-helical secondary structure (˜26%) of these backbone 1 αPNAs in the absence of DNA was confirmed by circular dichroism (CD) studies in H2O. Both the N-terminal linked (b1) and C-terminal-linked (b1′) cysteine dimers formed complexes with d(A10) in H2O (Table 1, entries 1 and 2). […] The homothymine b1αPNAs required a relatively long incubation period (up to 4 days at 4° C. until constant absorbance was reached) due to the slow kinetics of annealing.
(§2) (Cf. Corey, D. R. J. Am. Chem. Soc. 1995, 117, 9373–9374). […] Even the T5(b2) module hybridized with d(A10) (SEQ ID NO.: 2)—albeit weakly as expected for a complex held together by only A•T base pairs (entry 5). […] This implies that equilibration is being achieved during the cooling cycle. This Tm is 20° C. higher than that of C5(b1)•d(TA3G5A3T) in H2O (compare entries 6 and 7) and 35° C. higher than the corresponding DNA•DNA duplex (in TE-buffer+150 mM NaCl). […] (Marky, L. A.; Breslauer, K. J. Biopolymers 1987, 26, 1601–1620). Added salt was expected to disrupt favorable charge—charge interactions between cationic αPNAs and anionic DNA.
(§3) This reduction in melting temperature presumably arises from residual hydration of the mismatched nucleobases and provides additional support for our proposed Watson-Crick binding model.

d(A3GGAGGA3) [2] = assay: Thermal denaturation (Tm) of complex with d(A3GGAGGA3)
Method: as §2, §3

d(A3GGAGGA3) [3] = assay: CD titration (Job plot) with d(A3GGAGGA3); details: 258 nm, 5° C., total concentration 12 μM, water
Method: Spectra were recorded at 5° C. using a JASCO J-600 CD spectro-polarimeter. Samples having a total concentration ([αPNA]+[DNA]) of 12 μM were made up in doubly deionized water and placed in a stoppered optical quartz cell (1 cm pathlength). Dry air was purged through the sample compartment. Each data point represents the average of eight (baseline corrected) points. […] This is in line with the PAGE experiment with T5(b2)-dimer and d(C3T(TC2)2A10C(TC2)3) (SEQ. ID NO.: 6).

d(A3AGGAGA3) [4] = assay: Thermal UV denaturation (Tm), antiparallel target d(A3AGGAGA3); details: Table 1; antiparallel (N/3′) orientation
[5] = Table 3, N-4-(cyclohexyl)butyryl cap

Substance | Tm (heating) (d(A3AGGAGA3) [1]) | Tm (cooling) (d(A3GAGGAA3)) | Tm (heating) (d(A3GAGGAA3)) | other results
3-cyclopentylpropionyl-CTCCT [C5H9CH2CH2CO] | 33.8 °C | 38.2 °C | 43.7 °C | –
4-(1-pyrenyl)butyryl-CTCCT [1-pyrenyl(CH2)3CO] | 39.0 °C | 43.8 °C | 42.6 °C | –
4-(2-naphthyl)butyryl-CTCCT [2-naphthyl(CH2)3CO] | 36.3 °C | 40.0 °C | 42.7 °C | –
4-(p-methoxyphenyl)butyryl-CTCCT [p-MeOC6H4(CH2)3CO] | 34.2 °C | 37.0 °C | 41.3 °C | –
4-(p-nitrophenyl)butyryl-CTCCT [p-NO2C6H4(CH2)3CO] | 34.4 °C | 37.8 °C | 41.6 °C | –
4-cyclohexylbutyryl-CCCCC [C6H11(CH2)3CO-CCC CC] | – | – | – | Tm (cooling) (d(TA3G5A3T)): 66 °C; Tm (heating) (d(TA3G5A3T)): 65 °C; Tm (heating) (d(TA3G5A3T); listed as N-4-(cyclohexyl)butyryl-CCCCC): 64.9 °C
4-cyclohexylbutyryl-CCTCC [C6H11(CH2)3CO-CCT CC] | – | – | – | Tm (cooling) (d(A3GGAGGA3) [2]; [5]): 51 °C; Tm (heating) (d(A3GGAGGA3) [2]; [5]): 60 °C; Tm (heating) (d(A3GGAGGA3) [2]; Table 3, N-4-(cyclohexyl)butyryl cap, listed as N-4-(cyclohexyl)butyryl-CCTCC): 60.8 °C; Tm (cooling) (d(TA3G5A3T)): 46 °C; Tm (heating) (d(TA3G5A3T)): 50 °C; lowering of Tm (cooling) by a single base-pair mismatch (d(TA3G5A3T); mismatched complex): 10 °C; lowering of Tm (heating) by a single base-pair mismatch (d(TA3G5A3T); mismatched complex): 15 °C
4-cyclohexylbutyryl-CTCCT [C6H11CH2CH2CH2CO] | 33.4 °C | 43.7 °C | 47.9 °C | Tm increase compared to the parent N-acetylated αPNA (d(A3GAGGAA3); parallel, heating, cooling): 11–12 °C
4-phenylbutyryl-CTCCT [C6H5(CH2)3CO] | 33.6 °C | 38.5 °C | 41.8 °C | –
Ac-Cys^Acm-Lys-(Ser^C-Ala2-Lys)2-Ser^T-(Ala2-Lys-Ser^C)2-Gly-Lys-NH2 [CCTCC(b2)] | – | – | – | Tm (d(A3GGAGGA3) [2]; Table 1): 49 °C; CD intensity minimum (d(A3GGAGGA3) [3]): 50 mol % αPNA; Tm (d(A3AGGAGA3) [4]): 32 °C; Tm (d(TA3G5A3T); TE-buffer): 38 °C; Tm (d(A3GAGGAA3); Table 1, parallel (N/5′) orientation): 37 °C
n-butyryl-CTCCT [CH3CH2CH2CO] | 30.2 °C | 36.7 °C | 40.0 °C | –
n-hexanoyl-CTCCT [CH3CH2CH2CH2CH2CO] | 33.4 °C | 35.0 °C | 41.0 °C | –
